“Also recorded” adds a separate entry of the source. Each block holds one molecule with its values, some of them ahead of it.
Columns and labels:
[1] = test system: photoreceptor OS membrane assembly in RPE-deprived retinas; assay: In vitro assay of photoreceptor outer segment (OS) membrane assembly in RPE-deprived Xenopus laevis tadpole retinas; type: cell-based; conditions: for ability to promote OS assembly in the presence of the Müller cell inhibitor: with 1×10^−5 M α-AAA, IPTG at 5×10^−5 M; for average OS organizational grade (mean±SEM; grade 4 = 100% organization): 5×10^−3 M sugar, three days in culture
Excerpt: We have used various oligosaccharides at concentrations ranging over four orders of magnitude to evaluate the ability of these oligosaccharides to support OS membrane assembly in RPE-deprived retina, using a Xenopus laevis system that allows for convenient analysis of OS membrane formation in vitro. In the RPE-deprived cultures, the RPE continues to be present as a cluster of cells at the ora serrata; however throughout the posterior pole and periphery of the retina, the RPE layer has been removed from its normal position adjacent to the photoreceptors.
Intact retinas were removed from stage 33/34 Xenopus laevis tadpoles and placed into culture in Niu-Twitty medium for three days as described above. Using this paradigm, all OS material is elaborated while in culture. […]

[2] = test system: photoreceptor OS membrane assembly in RPE-deprived retinas; conditions: previous studies (60, 61); cited from earlier work
[3] = test system: xrds38 isoform of Xenopus peripherin2; assay: Antisense oligonucleotide knockdown in isolated Xenopus laevis eye rudiments; type: cell-based; conditions: steady-state level vs retinas with intact RPE
Excerpt: We have developed an assay system using intact isolated Xenopus laevis eye rudiments coupled with antisense oligonucleotides that is well suited to evaluating the functional role of specific gene products, e.g., in OS membrane assembly. As an example of the capability of this assay system, we generated a loss-of-function model for peripherin2, a genetically and phenotypically well-characterized gene (76-82). Photoreceptors of Xenopus laevis express three distinct isoforms of the peripherin2 gene; cones express xrds38 exclusively, whereas rods express […] xrds38 (83). For purposes of validation of the antisense assay system, our evaluation was directed to xrds38. Phosphorothioated oligonucleotides (two 20-base antisense oligonucleotides and one 20-base sense oligonucleotide) derived from the 5' end of the coding sequences of the xrds38 isoform of Xenopus peripherin2 were utilized. Additional controls included: retinas with an intact RPE, and retinas devoid of RPE with 5 mM exogenous lactose added to the medium. […] The percentage of retinal cells that had positive uptake of the FITC-conjugated oligonucleotide was determined by comparing the volume of bright to dark areas in optical sections obtained with the confocal microscope. […] The steady-state levels of each protein were compared to the levels detected in control retinas maintained with an intact RPE cell layer.

Müller cells = conditions: 1×10^−5 M, RPE-supported retinas; cited from earlier work
[4] = test system: putative retinal glycan receptor on Müller cells; assay: Binding of biotinylated-NA3 to embryonic retinas, anti-biotin immunostaining and confocal microscopy; set-up: species or system Xenopus laevis; conditions: biotinylated-NA3 alone
Excerpt: Embryonic Xenopus laevis retinas were exposed to two experimental conditions: (1) biotinylated-NA3; and (2) biotinylated-NA3 with a molar excess of IPTG as a competitive sugar, to eliminate non-specific interactions of NA3 with retinal proteins. After exposure to the sugars followed by immunostaining using a mouse anti-biotin primary antibody and a chicken anti-mouse secondary antibody coupled to Alexa fluor 594 using standard protocols, eyes were bisected and viewed using a confocal microscope.
2. Localization of the glycan receptor using biotinylated-NA3 probe. RPE-deprived retinas from stage 33/34 Xenopus laevis tadpoles are exposed to Niu-Twitty medium containing 10^−7 M biotinylated-NA3 for 3 hours, followed by fixation in 4% paraformaldehyde. Control retinas are incubated in NA3+10^−5 M IPTG to reveal non-specific binding of the NA3 ligand. Subsequent procedures are identical to those described above for immunohistochemical localization. In this instance, however, the following primary and secondary antibodies are utilized: anti-biotin, mouse IgG (Molecular Probes) as primary antibody; and anti-mouse chicken IgG labeled with Alexa Fluor 488 (Molecular Probes). To confirm the localization to a particular retinal cell type, sections are co-stained with antisera that are cell type-specific (e.g., directed against Müller cell- or photoreceptor-specific gene products).

- average grade of OS membranes assembled during exposure to the sugar (early part) ([1]; 5×10^−5 M IPTG with 3H-leucine for two days): about 2.88±0.37
- concentration that optimally supports OS assembly (maximum effect) ([1]; RPE-deprived retinas): 50 µM
- fold lower concentration than lactose for comparable effect on OS assembly ([1]; RPE-deprived retinas): 100 fold
- average OS grade at maximum response ([1]; RPE-deprived retinas, 5×10^−5 M IPTG): 2.61±0.37
- average grade of OS membranes assembled after removal of the sugar (later stage) ([1]; two further days in non-supplemented medium after IPTG): 1.21±0.31
Molecule: CC(C)S[C@@H]1O[C@H](CO)[C@H](O)[C@H](O)[C@H]1O [IPTG, isopropyl beta-D-thiogalactopyranoside]
- ability to promote OS assembly in the presence of the Müller cell inhibitor ([1]; RPE-deprived retinas): severely diminished

Molecule: C[C@H](O)[C@@H](O)[C@@H](O)[C@H](O)C=O [fucose]
- ability to let OS organize in the absence of the RPE (permissive / non-permissive sugars) [2]: fail to exert any organizational effect

Molecule: O=C[C@H](O)[C@@H](O)[C@@H](O)[C@H](O)CO [galactose]
- ability to let OS organize in the absence of the RPE (permissive / non-permissive sugars) [2]: permit OS to organize

Molecule: OC[C@H]1O[C@@H](O[C@H]2[C@H](O)[C@@H](O)C(O)O[C@@H]2CO)[C@H](O)[C@@H](O)[C@H]1O (some centres unmarked) [lactose]
- support of OS assembly in the absence of RPE ([1]; 5×10^−3 M (5 mM)): supports the proper formation of nascent OS; also recorded: OS assembly is supported
- concentration that optimally supports OS assembly (maximum effect) ([1]; RPE-deprived retinas): 5000 µM
- share of OS membranes highly organized ([1]; RPE-deprived retinas, 5×10^−3 M): 50 to 75%
- average OS organizational grade (mean±SEM; grade 4 = 100% organization) ([1]; RPE-deprived retinas): 2.50±0.28
- opsin protein level relative to control [3]: not significantly different from controls
- peripherin2 protein level relative to control [3]: slightly elevated above control
- ability to let OS organize in the absence of the RPE (permissive / non-permissive sugars) [2]: permit OS to organize

Molecule: O=C[C@@H](O)[C@@H](O)[C@H](O)[C@H](O)CO [mannose]
- support of OS assembly in the absence of RPE ([1]; 5×10^−3 M (5 mM)): does not favorably affect the folding of OS; also recorded: fails to support the proper assembly of OS
- average OS organizational grade (mean±SEM; grade 4 = 100% organization) ([1]; RPE-deprived retinas): 0.52±0.22
- ability to let OS organize in the absence of the RPE (permissive / non-permissive sugars) [2]: fail to exert any organizational effect

Molecule: NC(CCCC(=O)O)C(=O)O (stereo not drawn) [α-AAA, Alpha-aminoadipic acid]
- effect on Müller cell morphology and protein expression patterns (Müller cells): selective alterations
- effect on ability of photoreceptors to synthesize opsin (Müller cells): no affect
- effect on assembly of nascent OS membranes (Müller cells): interfere with the ability of these cells to properly assembly nascent OS membranes

Molecule: asialo, galactosylated, biantennary (NA2) oligosaccharide
- concentration that optimally supports OS assembly (maximum effect) ([1]; RPE-deprived retinas): 0.005 µM

Molecule: asialo, galactosylated, triantennary (NA3) oligosaccharide
- support of OS assembly in the absence of RPE ([1]; 5×10^−10M): robust support of OS assembly
- concentration that optimally supports OS assembly (maximum effect) ([1]; RPE-deprived retinas): 0.0005 µM
- binding to photoreceptors [4]: did not bind to any portion of photoreceptors

B1: PEDF: pigment epithelium derived factor, RPE-secreted protein (protein, UniProt P36955 20-418, looked up)
Pigment epithelium-derived …: QNPASPPEEGSPDPDSTGALVEEEDPFFKVPVNKLAAAVSNFGYDLYRVRSSTSPTTNVLLSPLSVATALSALSLGAEQRTESIIHRALYYDLISSPDIHGTYKELLDTVTAPQKNLKSASRIVFEKKLRIKSSFVAPLEKSYGTRPRVLTGNPRLDLQEINNWVQAQMKGKLARSTKEIPDEISILLLGVAHFKGQWVTKFDSRKTSLEDFYLDEERTVRVPMMSDPKAVLRYGLDSDLSCKIAQLPLTGSMSIIFFLPLKVTQNLTLIEESLTSEFIHDIDRELKTVQAVLTVPKLKLSYEGEVTKSLQEMKLQSLFDSPDFSKITGKPIKLTQVEHRAGFEWNEDGAGTTPSPGLQPAHLTFPLDYHLNQPFIFVLRDTDTGALLFIGKILDPRGP
- ability to promote OS assembly in the presence of the Müller cell inhibitor ([1]; RPE-deprived retinas): able to support proper membrane folding

Source: patent publication US8092825B2, “Glycan binding proteins as therapeutic targets for retinal disorders and treatment methods based thereon” (The University of Tennessee Research Foundation, priority 2007, dated 2012)
